In publication PMC11643962, “Exploring 4,7-Disubstituted Pyrimido[4,5-d]pyrimidines as Antiviral and Anticancer Agents” (Molecules, 2024):
Where two headings read alike, the source gives them in different places.

Experiments:
[1] = system: Z-138 (non-Hodgkin lymphoma); assay: MTS proliferation assay, Z-138; details: read-out: Anti-Proliferative Activity (IC50) Z-138
[2] = system: respiratory syncytial virus A (RSV A Long); assay: Antiviral CPE reduction assay, RSV A Long in Hep2 cells; format: cell-based
[3] = system: NCI-H460 (lung carcinoma); assay: MTS proliferation assay, NCI-H460; details: read-out: Anti-Proliferative Activity (IC50) NCI-H460
[4] = in vitro; details: African green monkey
[5] = system: influenza A/H3N2 (A/HK/7/87); assay: Antiviral CPE reduction assay, influenza A/H3N2 in MDCK cells; format: cell-based, influenza A virus; details: read-out: Antiviral Activity (EC50) Influenza H3N2
[6] = system: influenza B (B/Ned/537/05); assay: Antiviral CPE reduction assay, influenza B in MDCK cells; format: cell-based, influenza B virus; details: read-out: Antiviral Activity (EC50) Influenza B
[7] = system: Zika virus (ZikV mr766); assay: Antiviral CPE reduction assay, Zika virus mr766 in VeroE6 cells; format: cell-based; details: mean ± SD, no unit printed on the supplement page (Table 2 of the same screen is in µM)
[8] = system: K-562 (chronic myeloid leukemia); assay: MTS proliferation assay, K-562; details: read-out: Anti-Proliferative Activity (IC50) K-562
[9] = system: HL-60 (acute myeloid leukemia); assay: MTS proliferation assay, HL-60; details: read-out: Anti-Proliferative Activity (IC50) HL-60
[10] = system: LN-229 (glioblastoma); assay: MTS proliferation assay, LN-229; details: read-out: Anti-Proliferative Activity (IC50) LN-229
[11] = system: HCoV-NL63; assay: Antiviral CPE reduction assay, HCoV-NL63 in Hep3B cells; format: cell-based, human coronavirus NL63; details: mean ± SD of two or three independent experiments
[12] = in vitro; details: dog
[13] = system: influenza A/H1N1 (A/Ned/378/05); assay: Antiviral CPE reduction assay, influenza A/H1N1 in MDCK cells; format: cell-based, influenza A virus; details: read-out: Antiviral Activity (EC50) Influenza H1N1
[14] = system: HCoV-229E; assay: Antiviral CPE reduction assay, HCoV-229E in HEL299 cells; format: cell-based, human coronavirus 229E; details: mean ± SD of two or three independent experiments
[15] = system: DND-41 (acute lymphoblastic leukemia); assay: MTS proliferation assay, DND-41; details: read-out: Anti-Proliferative Activity (IC50) DND-41
[16] = system: HCoV-OC43; assay: Antiviral CPE reduction assay, HCoV-OC43 in HEL299 cells; format: cell-based, human coronavirus OC43; details: mean ± SD of two or three independent experiments
[17] = system: Capan-1 (pancreatic adenocarcinoma); assay: MTS proliferation assay, Capan-1; details: read-out: Anti-Proliferative Activity (IC50) Capan-1
[18] = system: yellow fever virus (YFV 17D); assay: microbe, parasite or virus in culture; format: cell-based
[19] = system: eight diverse human cancer cell lines; assay: MTS proliferation assay, panel of eight human cancer cell lines (statements for the whole panel); details: 72 h
[20] = system: HCT-116 (colorectal carcinoma); assay: MTS proliferation assay, HCT-116; details: read-out: Anti-Proliferative Activity (IC50) HCT-116
[21] = system: herpes simplex virus-1 (HSV-1 KOS); assay: Antiviral CPE reduction assay, HSV-1 KOS in HEL299 cells; format: cell-based; details: mean ± SD, no unit printed on the supplement page (Table 2 of the same screen is in µM)
[22] = system: eight diverse human cancer cell lines
[23] = system: VeroE6 cells
[24] = system: Hep3B cells
[25] = system: HEL299 cells
[26] = system: Hep2 cells
[27] = system: MDCK cells
[28] = system: variety of viruses (HSV-1, influenza viruses, yellow fever virus, Zika virus, RSV, HCoV-229E, HCoV-OC43, HCoV-NL63); format: cell-based; details: CPE reduction assays, virus panel
[29] = in vitro; details: human
[30] = in vitro; details: human; remark: listed apart in the source
[31] = in vitro; details: human; remark: listed apart in the source
[32] = Human coronavirus 229E, HEL 299, MTS
[33] = Betacoronavirus 1, OC43, HEL 299, MTS
[34] = Yellow fever virus, Vero C1008, read-out: Antiviral activity (EC50) YFV 17D
[35] = Human alphaherpesvirus 1, HEL 299, MTS
[36] = 72 h, MTS, mean ± SD of two independent experiments
[37] = MDCK cells, CPE reduction, MTS, mean ± SD of two or three independent experiments
[38] = human respiratory syncytial virus, HEp-2, Hep2 cells, CPE reduction, MTS, mean ± SD of two or three independent experiments, read-out: Antiviral Activity (EC50) RSV A Long
[39] = Influenza A virus, H3N2, MDCK cells, CPE reduction, MTS, mean ± SD of two or three independent experiments
[40] = Influenza A virus, H1N1, MDCK cells, CPE reduction, MTS, mean ± SD of two or three independent experiments
[41] = read-out: CC50 values (cytotoxic activity) in the cancer cell line panel

Compound: CC#CC(=O)Nc1ccc2ncnc(Nc3cccc(Br)c3)c2c1 [CL-387785, reference compound]
- IC50 ([1]; Homo sapiens, Z-138, 72 h): 0.2 ± 0.1 µM
- EC50 ([2]; human respiratory syncytial virus, HEp-2, read-out: Antiviral Activity (EC50) RSV A Long): > 100 µM
- IC50 ([3]; Homo sapiens, NCI-H460, 72 h): 2.8 ± 0.6 µM
- CC50 [4]: > 100 µM
- EC50 ([5]; Influenza A virus, H3N2, MDCK): > 100 µM
- EC50 ([6]; Influenza B virus, MDCK): 4.5 ± 1.2 µM
- EC50 ([7]; Zika virus, Vero C1008, MTS): > 100 µM
- IC50 ([8]; Homo sapiens, K562, 72 h): 65 ± 0.2 µM
- IC50 ([9]; Homo sapiens, HL-60, 72 h): 1.9 ± 0.04 µM
- IC50 ([10]; Homo sapiens, LN-229, 72 h): 43.8 ± 6.7 µM
- EC50 ([11]; Human coronavirus NL63, MTS): > 100 µM
- CC50 [12]: 7.1 ± 0.4 µM
- EC50 ([13]; Influenza A virus, H1N1, MDCK): > 100 µM
- EC50 [14, 32]: 0.4 ± 0.2 µM
- IC50 ([15]; Homo sapiens, DND41, 72 h): 0.9 ± 0.2 µM
- EC50 [16, 33]: 1.8 ± 0.4 µM
- IC50 ([17]; Homo sapiens, CAPAN-1, 72 h): 0.1 ± 0.01 µM
- EC50 [18, 34]: > 100 µM
- CC50 ([19]; read-out: CC50 values (anti-proliferative activity) against the majority of the tested cell lines): < 10 µM
- IC50 ([20]; Homo sapiens, HCT-116, 72 h): 1.3 ± 1.1 µM
- EC50 [21, 35]: 1 µM

Compound: C=CC(=O)Nc1cccc(Nc2nc(Nc3ccc(NC4CN(CCF)C4)cc3OC)ncc2C(F)(F)F)c1 [CNX-2006, reference compound]
- IC50 [1, 36]: 2.6 ± 0.5 µM
- EC50 ([2]; Hep2 cells, CPE reduction, MTS, mean ± SD of two or three independent experiments, read-out: Antiviral Activity (EC50) RSV A Long): > 100 µM
- CC50 [22]: < 10 µM
- IC50 [3, 36]: 8.7 ± 1.9 µM
- CC50 [23]: 9.2 ± 1.1 µM
- EC50 [5, 37]: > 100 µM
- EC50 [6, 37]: > 100 µM
- CC50 [24]: 4.3 ± 1.8 µM
- EC50 ([7]; MTS): > 100 µM
- CC50 [25]: 11.1 ± 1 µM
- IC50 [8, 36]: 11.5 ± 0.06 µM
- IC50 [9, 36]: 3.8 ± 1.4 µM
- IC50 [10, 36]: 8.2 ± 1.2 µM
- EC50 ([11]; MTS): > 100 µM
- EC50 [13, 37]: > 100 µM
- CC50 [26]: 11.7 ± 0.8 µM
- EC50 ([14]; MTS): 1.8 ± 0.2 µM
- IC50 [15, 36]: 4.5 ± 0.2 µM
- EC50 ([16]; MTS): 2.2 ± 0.8 µM
- IC50 [17, 36]: 1.7 ± 0.01 µM
- EC50 ([18]; VeroE6 cells, CPE reduction, MTS, mean ± SD, no unit printed on the supplement page (Table 2 of the same screen is in µM), read-out: Antiviral activity (EC50) YFV 17D): > 100 µM
- IC50 [20, 36]: 6.6 ± 0.7 µM
- EC50 ([21]; MTS): > 100 µM
- CC50 [27]: 1.7 ± 0.4 µM

Compound: CN1CCN(c2ncc3c(Nc4cccnc4)ncnc3n2)CC1 [Compound 7k, 7-(4-methylpiperazin-1-yl)-N-(pyridin-3-yl)pyrimido[4,5-d]pyrimidin-4-amine]
- IC50 ([1]; Homo sapiens, Z-138, 72 h): > 100 µM
- EC50 [2, 38]: > 50 µM
- IC50 ([3]; Homo sapiens, NCI-H460, 72 h): > 100 µM
- CC50 [4]: > 50 µM
- antiviral activity (in words) [28]: inactive
- EC50 [5, 39]: > 50 µM
- CC50 [29]: > 50 µM
- melting point: > 300 °C
- EC50 ([6]; Influenza B virus, MDCK): > 50 µM
- EC50 ([7]; Zika virus, Vero C1008, MTS): > 50 µM
- IC50 ([8]; Homo sapiens, K562, 72 h): > 100 µM
- IC50 ([9]; Homo sapiens, HL-60, 72 h): > 100 µM
- IC50 ([10]; Homo sapiens, LN-229, 72 h): > 100 µM
- EC50 ([11]; Human coronavirus NL63, MTS): > 50 µM
- CC50 [12]: > 50 µM
- EC50 [13, 40]: > 50 µM
- CC50 [30]: > 50 µM
- EC50 [14, 32]: > 50 µM
- CC50 [31]: > 50 µM
- IC50 ([15]; Homo sapiens, DND41, 72 h): > 100 µM
- EC50 [16, 33]: > 50 µM
- IC50 ([17]; Homo sapiens, CAPAN-1, 72 h): > 100 µM
- EC50 [18, 34]: > 50 µM
- IC50 ([20]; Homo sapiens, HCT-116, 72 h): > 100 µM
- EC50 [21, 35]: > 50 µM

Compound: C#Cc1cccc(Nc2ncnc3cc4c(cc23)OCCOCCOCCO4)c1 [Icotinib, icotinib, reference compound]
- IC50 ([1]; Homo sapiens, Z-138, 72 h): > 100 µM
- EC50 [2, 38]: > 100 µM
- IC50 ([3]; Homo sapiens, NCI-H460, 72 h): > 100 µM
- CC50 [4]: > 100 µM
- EC50 [5, 39]: > 100 µM
- CC50 [29]: > 100 µM
- EC50 ([6]; Influenza B virus, MDCK cells, CPE reduction, MTS, mean ± SD of two or three independent experiments): > 100 µM
- EC50 ([7]; Zika virus, Vero C1008, MTS): > 100 µM
- IC50 ([8]; Homo sapiens, K562, 72 h): > 100 µM
- IC50 ([9]; Homo sapiens, HL-60, 72 h): > 100 µM
- IC50 ([10]; Homo sapiens, LN-229, 72 h): > 100 µM
- EC50 ([11]; Human coronavirus NL63, MTS): > 100 µM
- CC50 [12]: > 100 µM
- EC50 [13, 40]: > 100 µM
- CC50 [30]: > 100 µM
- EC50 [14, 32]: > 100 µM
- CC50 [31]: > 100 µM
- IC50 ([15]; Homo sapiens, DND41, 72 h): > 100 µM
- EC50 [16, 33]: > 100 µM
- IC50 ([17]; Homo sapiens, CAPAN-1, 72 h): > 100 µM
- EC50 [18, 34]: > 100 µM
- CC50 [19, 41]: > 100 µM
- IC50 ([20]; Homo sapiens, HCT-116, 72 h): > 100 µM
- EC50 [21, 35]: > 100 µM

Compound: C=CC(=O)Nc1cccc(Oc2nc(Nc3ccc(N4CCN(C)CC4)cc3OC)ncc2Cl)c1 [WZ4002, reference compound]
- IC50 ([1]; Homo sapiens, Z-138, 72 h): > 100 µM
- EC50 [2, 38]: > 100 µM
- IC50 ([3]; Homo sapiens, NCI-H460, 72 h): > 100 µM
- CC50 [4]: > 100 µM
- EC50 [5, 39]: > 100 µM
- CC50 [29]: > 100 µM
- EC50 ([6]; Influenza B virus, MDCK): > 100 µM
- EC50 ([7]; Zika virus, Vero C1008, MTS): > 100 µM
- IC50 ([8]; Homo sapiens, K562, 72 h): > 100 µM
- IC50 ([9]; Homo sapiens, HL-60, 72 h): > 100 µM
- IC50 ([10]; Homo sapiens, LN-229, 72 h): > 100 µM
- EC50 ([11]; Human coronavirus NL63, MTS): > 100 µM
- CC50 [12]: > 100 µM
- EC50 [13, 40]: > 100 µM
- CC50 [30]: > 100 µM
- EC50 [14, 32]: 41.8 ± 9.8 µM
- CC50 [31]: > 100 µM
- IC50 ([15]; Homo sapiens, DND41, 72 h): > 100 µM
- EC50 [16, 33]: > 100 µM
- IC50 ([17]; Homo sapiens, CAPAN-1, 72 h): > 100 µM
- EC50 [18, 34]: > 100 µM
- CC50 [19, 41]: > 100 µM
- IC50 ([20]; Homo sapiens, HCT-116, 72 h): > 100 µM
- EC50 [21, 35]: > 100 µM
